Experiment [1] concerns TIII. The experiment can be described thus: Cell growth / proliferation (viable cell number). It counts as cell-based, murine. The note with it: mean of at least 2 independent experiments; for % Growth inhibition After 3 days: N6 or N7 20 μM, viable cell number vs untreated control; for % Inhibition of cell Proliferation: after 3 days of culture, vs untreated control. The protocol:
(§1) Human breast (MDA-MB-231, MDA-MB-435 [37]), prostate (LNCaP, from American Type Culture Collection, ATCC, Rockville, MD), and cervical (HeLa) epithelial cancer cells were grown in DMEM-glutamax medium (Gibco Invitrogen, Cergy-Pontoise, France) containing GlutaMAX™, 4.5 g/l glucose and supplemented with 10% heat-inactivated (56°C for 30 min) fetal bovine serum (FBS; Hyclone, Thermo Fisher Scientific, Inc). Human SW480 cells are derived from a grade 3-4 colon carcinoma, while the highly metastatic counterpart SW620 is established from the lymph node of a person. Both SW480 and SW620 cells (obtained from Francis Raul, IRCAD) are highly tumorigenic in nude mice. They were cultured in D-MEM, 10% FCS. The murine melanoma TIII cell line was obtained from Armelle Prévost-Blondel. Murine T29 lymphoma cells, obtained from Philippe Kastner (CNRS, Strasbourg), have been established from Ik^L/L tumors from mice carrying a hypomorphic mutation (Ik^L/L) in the Ikaros gene encoding a transcription factor that regulates lymphocyte differentiation, and acts also as a tumor suppressor in T lymphocytes. The T29 cells were cultured in RPMI medium containing 25 mM Hepes pH 7.6, 1 mM sodium pyruvate, and 10% FCS. Human leukemia cell lines, Jurkat (acute T cell leukemia), HuT 78 (cutaneous T lymphocyte), RAJI (Burkitt lymphoma), and HL60 (promyelocytic leukemia) were cultured in RPMI-1640 medium (Gibco) containing GlutaMAX™, and supplemented with 10% heat-inactivated FBS as described before. The wild-type Chinese hamster ovary cell line (CHO K1) was purchased from American Type Culture Collection (ATCC; Rockville, MD). The CHO LRP1-null cell line (CHO-13-5-1) was kindly provided by D. Strickland [47]. They were cultured in Ham's F12K medium. All cells were cultured with 10% (v/v) heat inactivated (56°C, 30 min) fetal bovine serum (FBS) (Roche Molecular Biochemicals, Indianapolis, IN) and 50 international units/mL penicillin-streptomycin (Invitrogen). Cell death was monitored conveniently by uptake of the trypan blue dye due to plasma membrane permeability of dying and/or dead cells.

The next experiment has as its system HL60. Nature of the experiment: Cell growth (viable cell number). The note with it: N6 or N7 20 μM, viable cell number vs untreated control, mean of at least 2 independent experiments. The experiment is classed as cell-based, human. How it is done:
as §1

Experiment [2] has as its system HeLa. The experiment can be described thus: Cell growth (viable cell number). It counts as cell-based, human. The note with it: N6 or N7 20 μM, viable cell number vs untreated control, mean of at least 2 independent experiments. How it is done: as §1
The subject of experiment [3] is HuT 78. Nature of the experiment: Cell growth (viable cell number). The experiment is classed as cell-based, human. The settings on record: N6 or N7 20 μM, viable cell number vs untreated control, mean of at least 2 independent experiments. The protocol:
as §1

A further experiment deals with Jurkat. Nature of the experiment: Cell growth (viable cell number). The experiment is classed as cell-based, human. The note with it: N6 or N7 20 μM, viable cell number vs untreated control, mean of at least 2 independent experiments. The protocol:
as §1

For another experiment, the system named is LNCaP. The experiment can be described thus: Cell growth (viable cell number). The experiment is classed as cell-based, human. The settings on record: N6 or N7 20 μM, viable cell number vs untreated control, mean of at least 2 independent experiments. How it is done: as §1
The next experiment has as its system MDA-MB 231. Nature of the experiment: Cell growth (viable cell number). It counts as cell-based, human. The note with it: N6 or N7 20 μM, viable cell number vs untreated control, mean of at least 2 independent experiments. The protocol: as §1
Another experiment deals with MDA-MB 435. Nature of the experiment: Cell growth (viable cell number). The experiment is classed as cell-based, human. The settings on record: N6 or N7 20 μM, viable cell number vs untreated control, mean of at least 2 independent experiments. The protocol:
as §1

Experiment [4] has as its system RAJI. Nature of the experiment: Cell growth (viable cell number). It counts as cell-based, human. The note with it: N6 or N7 20 μM, viable cell number vs untreated control, mean of at least 2 independent experiments. How it is done: as §1
Experiment [5] deals with T29. The experiment can be described thus: Cell growth / multiplication (viable cell number). The experiment is classed as cell-based, murine. The note with it: for % Growth inhibition After 3 days: T29, N6 or N7 20 μM, viable cell number vs untreated control, mean of at least 2 independent experiments; for IC50: T29 cells, 0-20 μM, number of viable cells at 3 days post-treatment, read-out: Cell number: IC50 72 hours post-passage; for multiplication index of cells at day 3 compared to day 0: T29 seeded at 150,000 cells/ml, 10 μM (hexavalent), triplicate, control 17.5-fold. The protocol:
as §1
Figure 7 HB-19 and related multivalent Nucant pseudopeptides induce cell death associated with internucleosomal DNA fragmentation. A. Inhibition of cell multiplication by HB-19 and related multivalent Nucant pseudopeptides. […] Cell cultures (in triplicate) were monitored for viable cell number daily for 3 days. The histograms show the mean number of cells/ml ± SD of triplicate samples. The multiplication index of cells at day 3 compared to day 0 (the day of seeding) is given at the top of histogram. At 3 days post passage of T29 cells, the cell multiplication index of cells is 17.5-fold compared to 8.9-, 7.2-, 2.2-, and 1.7-fold in the presence of treatment with HB-19, N3, N6, and N7, respectively. B. N7 inhibits T29 cell multiplication in a dose dependent manner. T29 cells seeded at 100,000/ml in 2 ml in the absence (0 μM) or presence of N7 at various concentrations 2.5, 5, 10 and 20 μM were cultured for 3 days and the number of viable cells was determined at day 1, 2, and 3 post-seeding. The ordinate gives the cell number/ml (the mean of 2 samples) in each culture at day 1, 2, and 3 post-seeding. C. Partial cleavage of surface/cytoplasmic nucleolin. T29 cells were cultured for 45 min with 0 (for control; lanes C), 2 and 10 μM of N6 before preparation of cytoplasmic (that contains both surface and cytoplasmic nucleolin) and nuclear extract and analysis by immunoblotting using rabbit polyclonal antibodies that are directed against the first 26 (panel anti-Nt Ab) and the last 16 amino acids (panel anti-Ct Ab) of human nucleolin, respectively. The nuclear extracts were analyzed by immunoblotting using anti-Nt Ab (Methods). […]

Experiment [6] relates to T29. The experiment can be described thus: Cell death (trypan blue uptake). It counts as cell-based, murine. The settings on record: for % Cell death After 24 hours: T29, freshly passaged, N6 or N7 20 μM, mean of at least 2 independent experiments; for IC50: T29 cells, 0-20 μM, read-out: Cell death: IC50 24 hours post-passage. How it is done: as §1
Experiment [7] deals with TIII. Nature of the experiment: Cell death (trypan blue uptake). It counts as cell-based, murine. The settings on record: subconfluent, N6 or N7 20 μM, mean of at least 2 independent experiments. How it is done:
as §1

For experiment [8], the system named is HuT 78. The experiment can be described thus: Cell death (trypan blue uptake). The experiment is classed as cell-based, human. The note with it: HuT 78, freshly passaged; N6 or N7 20 μM; trypan blue uptake; mean of at least 2 independent experiments. How it is done: as §1, with “cells. […]” for “cells.”
Experiment [9] has as its system HeLa. The experiment can be described thus: Cell death (trypan blue uptake). The note with it: subconfluent, N6 or N7 20 μM, mean of at least 2 independent experiments. The experiment is classed as cell-based, human. The protocol:
as §1

Experiment [10] concerns RAJI. The experiment can be described thus: Cell death (trypan blue uptake). The settings on record: freshly passaged, N6 or N7 20 μM, mean of at least 2 independent experiments. The experiment is classed as cell-based, human. The protocol: as §1
The next experiment deals with SW480. The experiment can be described thus: Cell death (trypan blue uptake). It counts as cell-based, human. The note with it: SW480, subconfluent, N6 or N7 20 μM, mean of at least 2 independent experiments. The protocol: as §1

For the substance “Ac-KAKPGKAKPGKAKPG-NH2 [Nucant N7, Presents hexavalently the pseudo-tripeptide Lysψ(CH2N)-Pro-Arg coupled to a similar template as in HB-19]”, the “% Growth inhibition After 3 days” value in the experiment on TIII [1] came to 55%; in the experiment on HL60 it was 65%; in the experiment on HeLa [2] it was 46%; in the experiment on HuT 78 [3], 62%; in the experiment with Jurkat it was 80%; in the experiment on LNCaP, 88%. In addition, the “% Growth inhibition After 3 days” value came to 92% with MDA-MB 231, 58% with MDA-MB 435, 75% with RAJI [4] and 85% with T29 [5]. Further, the IC50 in the experiment with T29 [5] stood at 8 µM; in the experiment with T29 [6] it was 20 µM. Also, in the experiment with T29 [5], the “multiplication index of cells at day 3 compared to day 0” value stood at 1.7 fold. Also, the “% Cell death After 24 hours” value in the experiment with T29 [6] is 45%; in the experiment on TIII [7], under 5%; in the experiment with HuT 78 [8] it was 44%; with HeLa [9] it was under 5%; with RAJI [10] it was 42%; with SW480 it was under 5%.
In the case of “Ac-Lys-Aib-Gly-Lys-Aib-Gly-Lys-Aib-Gly-Lys-Aib-Gly-Lys-Aib-Gly-Lys-Aib-Gly-CONH2 [Nucant N6, Presents hexavalently the pseudo-tripeptide Lysψ(CH2N)-Pro-Arg coupled to the polypeptide template containing Aib]”, the “% Inhibition of cell Proliferation” value worked out at 12% in the experiment on TIII [1] (2.5 μM), 20% in the experiment on TIII [1] (5 μM), 32% with TIII [1] (10 μM) and 45% in the experiment on TIII [1] (20 μM). Besides, the “% Growth inhibition After 3 days” value with TIII [1] was found to be 55%; in the experiment on HL60, 65%; in the experiment on HeLa [2], 46%; in the experiment on HuT 78 [3], 62%; in the experiment on Jurkat it was 80%; with LNCaP, 88%. The “% Growth inhibition After 3 days” value in the experiment on MDA-MB 231 came out at 92%; with MDA-MB 435, 58%; with RAJI [4], 75%; with T29 [5], 85%. For the same substance, the IC50 turned out to be 8 µM in the experiment on T29 [5] and 20 µM in the experiment with T29 [6]. The “multiplication index of cells at day 3 compared to day 0” value in the experiment on T29 [5] came to 2.2 fold. The “% Cell death After 24 hours” value in the experiment with T29 [6] is 45%; in the experiment with TIII [7], under 5%; in the experiment with HuT 78 [8], 44%; in the experiment on HeLa [9], under 5%; in the experiment on RAJI [10], 42%; with SW480, under 5%.
